Assay results from patent publication US12466814B2, “Sterically shielded heptamethine cyanine dyes” (UNIVERSITY OF NOTRE DAME DU LAC, priority 2020, dated 2025).
Several values for one entry are separate records, joined by “and”; a condition that tells them apart may be missing. Equal values may be shown once. Marks after values point to notes of the source that are not given here.

Legend:
[1] = Absorption and emission spectral properties of dyes; type: physicochemical; conditions: for λabs max: monomer (m) band where an aggregate band is also listed
Description: General. Reagents and solvents were purchased from Sigma-Aldrich, VWR, Oakwood, Thermo Fisher and TCI and used without further purification unless stated otherwise. Anhydrous tetrahydrofuran was distilled with metal sodium and benzophenone. Column chromatography was performed using Biotage SNAP Ultra columns. ^1H, ^13C and ROESY NMR spectra were recorded on a Bruker 500 NMR spectrometer. Chemical shifts are presented in ppm and referenced by residual solvent peak. High-resolution mass spectrometry (HRMS) was performed using a time-of-flight (TOF) analyzer with electrospray ionization (ESI). Absorption spectra were recorded on an Evolution 201 UV/vis spectrometer with Thermo Insight software. Fluorescence spectra were collected on a Horiba Fluoromax-4 fluorometer with FluoroEssence software. Analyte solutions were prepared in HPLC grade water (Sigma-Aldrich), phosphate buffered saline (Thermo Fisher), fetal bovine serum (Sigma-Aldrich) or buffer B (575 mM NaCl, 37.5 mM NaH2PO4 and 0.75 mM EDTA in water, pH 7.5). All absorption and fluorescence spectra were collected using quartz cuvettes (1 mL, 1 cm path length; for emission and excitation spectra, slit width=3 nm).

[2] = Quantum yield and fluorescence brightness relative to UL766; type: physicochemical
Excerpt: The fluorescence spectrum of each solution was obtained with excitation at 730 nm, and the integrated area was used in the quantum yield calculation by the following equation:
[formula] where η is the refractive index of the solvent, I is the integrated fluorescence intensity, and A is the absorbance at a chosen wavelength. […]

[3] = Photostability, Xenon lamp irradiation; type: physicochemical
Description: FIG. 2. Two separate photostability studies. (a) Lamp irradiation: Four separate cuvettes, each containing 1 μM dye in PBS buffer, pH 7.4, were irradiated by a 150 W Xenon lamp with a 620 nm long-pass filter. The plot of normalized dye absorbance versus time was fit to a one-phase exponential decay. […] The length scale bar on each NIR fluorescence image is 1 cm.
Photostability Measurements. Lamp Irradiation: A solution of dye (1 μM) in PBS buffer, pH 7.4, was placed in a 1×1×4 cm^3 cuvette that was exposed to air and irradiated at a distance of 3 cm by a 150 W Xenon lamp with a 620 nm long-pass filter. An absorbance spectrum was recorded every 10 min. The normalized maximum absorbance of dye was plotted against time and fitted to a non-linear regression, one-phase exponential decay. […] A 1.5 mL vial containing the solution was irradiated at a distance of 3 cm by a 150 W Xenon lamp with a 620 nm long-pass filter.

[4] = Water solubility and storage of aqueous stock solutions; type: physicochemical; conditions: 1 mM in water
[5] = Dye self-aggregation by absorption/excitation spectra; type: physicochemical; conditions: in water / aqueous media, absorption spectra
Description: Self-aggregation of heptamethine cyanine dyes is readily indicated by conversion of monomer absorption bands into aggregate bands, in this case blue-shifted H-aggregates.

[6] = biological target: T1, bovine serum albumin (BSA) (Bos taurus, UniProt P02769); assay: Albumin binding, quenching of BSA tryptophan fluorescence
T1 construct: a solution of bovine serum albumin (BSA, 2 μM) at 37° C; purchased
Description: FIG. 13. […] The relative fluorescence intensity at 335 nm was determined using the following equation, where F0 is the initial fluorescence intensity, F is the fluorescence intensity after each aliquot addition of dye, and the slope of the trend line (m) corresponds to Ka±SD.
Albumin Binding Measurements. Two separate sets of titration experiments were performed. The first set of titration experiments measured quenching of bovine serum albumin (BSA) tryptophan fluorescence as dye was added incrementally. […] After each aliquot addition, the solution was mixed and allowed to equilibrate for 5 min before spectral acquisition.

[7] = biological target: T1, bovine serum albumin (BSA); assay: Albumin binding, dye fluorescence with and without BSA; conditions: PBS, presence and absence of BSA (2 μM)
Description: The second set of titration experiments measured the fluorescence intensity for samples of 756z and s775z at different concentrations in the presence and absence of BSA (2 μM).

[8] = Antibody conjugate absorbance and fluorescence; type: physicochemical; conditions: value used in degree of labeling calculation
Description: Antibody Conjugate Absorbance. Absorbance spectra of goat IgG antibody bioconjugates were collected in buffer B (575 mM NaCl, 37.5 mM NaH2PO4 and 0.75 mM EDTA in water, pH 7.5) using Implen NanoPhotometer NP80. Spectra were normalized to absorbance at 280 nm.
Antibody Conjugate Fluorescence. […] The fluorescence emission spectra were divided by the fluorescence emission intensity at 355 nm (ex: 280 nm, slit width: 2 nm) to obtain corrected spectra that accounts for variations in antibody concentration.

[9] = meso linkage is not cleaved by biological amines or thiols; cited from earlier work

T1 sequence (P02769 25-607): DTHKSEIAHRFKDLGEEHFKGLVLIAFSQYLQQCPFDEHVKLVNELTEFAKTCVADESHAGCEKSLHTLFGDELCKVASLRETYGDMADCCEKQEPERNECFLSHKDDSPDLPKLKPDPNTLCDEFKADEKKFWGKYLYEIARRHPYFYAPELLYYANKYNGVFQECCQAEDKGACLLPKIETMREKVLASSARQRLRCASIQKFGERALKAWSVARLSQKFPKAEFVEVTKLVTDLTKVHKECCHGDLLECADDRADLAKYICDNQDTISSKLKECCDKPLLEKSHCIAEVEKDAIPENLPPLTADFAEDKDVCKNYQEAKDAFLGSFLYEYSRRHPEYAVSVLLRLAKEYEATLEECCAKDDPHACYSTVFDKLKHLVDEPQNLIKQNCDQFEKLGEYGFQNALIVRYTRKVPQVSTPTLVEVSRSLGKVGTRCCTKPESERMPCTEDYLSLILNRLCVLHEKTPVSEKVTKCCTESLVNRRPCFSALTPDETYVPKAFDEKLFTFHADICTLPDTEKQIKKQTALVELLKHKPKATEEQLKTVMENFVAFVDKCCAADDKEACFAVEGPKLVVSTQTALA

## CC1(C)C(/C=C/C2=C(c3ccc(C(=O)O)cc3)C(=C/C=C3/N(CCC[N+](C)(C)C)c4ccc(S(=O)(=O)O)cc4C3(C)C)/CCC2)=[N+](CCC[N+](C)(C)C)c2ccc(S(=O)(=O)O)cc21 [Dye 756z]
[1]; 2 μM BSA in pH 7.4 PBS
  SS (Stokes shift): 18 nm
  ε: 107,000 M^−1cm^−1
  λabs max, aggregate (a) band: 681 (a)/ nm
  λem max: 773 nm
  λabs max: 755 (m) nm
[1]; 100% FBS
  SS (Stokes shift): 16 nm
  ε: 118,000 M^−1cm^−1
  λabs max, aggregate (a) band: 682 (a)/ nm
  λem max: 774 nm
  λabs max: 758 (m) nm
[1]; H2O
  SS (Stokes shift): 17 nm
  ε: 56,000 M^−1cm^−1
  λabs max, aggregate (a) band: 681 (a)/ nm
  λem max: 773 nm
  λabs max: 756 (m) nm
[1]; PBS pH 7.4
  SS (Stokes shift): 17 nm
[1]; PBS pH 7.4, room temperature
  λabs max, aggregate (a) band: 681 (a)^[f] nm and 681 (a)/ nm
  λem max: 773 nm
  λabs max: 756 (m)^[f] nm and 756 (m) nm
[1]; PBS pH 7.4, room temperature, monomer band
  ε: 99,000 (0.942)^[b] M^−1cm^−1 and 99,000 M^−1cm^−1
[2]; PBS pH 7.4, error ±15%
  Brightness (fluorescence brightness = ε × QY): 9,600
[2]; PBS pH 7.4, relative to UL766, error ±10%
  QY: 0.097
[2]; pH 7.4 PBS, relative to UL766, error ±10%
  Quantum yield: 9.7^[b] %
[3]; pH 7.4 PBS, 150 W Xenon lamp irradiation, 620 nm long-pass filter, 23° C., 1 μM dye
  k, rate constant of first-order decay: 0.00037 s⁻¹
[3]; separate cuvettes, dye in PBS, Xenon lamp >620 nm
  Order of photostabilities: s775z>756z>UL766>ICG
[4]
  Storage of 1 mM stock solution in water: forms a precipitate after 24 hr
[5]
  Aggregation state: exists largely as non-fluorescent H-aggregates
[6]
  Ka relative to Ka for BSA association with ICG: about 40 times lower
[6]; BSA 2 μM, 37° C., tryptophan fluorescence quenching
  Ka for BSA: 16000 M⁻¹
[6]; tryptophan quenching titration
  Dye/BSA affinity: weak dye/BSA affinity
[7]
  Effect of BSA on dye fluorescence: no effect on the dye fluorescence
[8]
  ϵmax for the monomer peak: 111,000 M^−1 cm^−1
[9]
  Stable to nucleophiles: Yes
